Non-standard residues stand in square brackets, D forms with d. Residues, ends and D or L forms follow the SMILES beside them. No end group written: not given here. ξ: configuration not given here. dBip = N[C@H](Cc1ccc(-c2ccccc2)cc1)C(=O)O; Oic = O=C(O)[C@@H]1C[C@@H]2CCCC[C@@H]2N1; Phe(4-Cl) = N[C@@H](Cc1ccc(Cl)cc1)C(=O)O; Oic(3aξ,7aξ) = O=C(O)[C@@H]1CC2CCCCC2N1; Phe(4-I) = N[C@@H](Cc1ccc(I)cc1)C(=O)O; hArg = N=C(N)NCCCC[C@H](N)C(=O)O; Cha = N[C@@H](CC1CCCCC1)C(=O)O; NMeL = CN[C@@H](CC(C)C)C(=O)O; Nle = CCCC[C@H](N)C(=O)O

Series [1] deals with isolated perfused rat hearts. The series can be described thus: Langendorff isolated perfused rat heart. As to conditions: FIGS. 4A-D and 5A-D. The source says: To assess the hemodynamic cardiac function of the peptides, a Langendorff isolated heart system was used. The isolated heart from rat provides a broad spectrum of measurements that can include biochemical, metabolic, morphological and physiological indices. Although the system lacks neurohormonal influences, neural regulation and high coronary flows, the advantages of the system include the ability to study direct cardiac effects without systemic circulation and a host of peripheral interactions. This method can yield excellent dose-response relationships and provides critical insight into the pharmacological and physiological properties of the molecules of interest.
Animals were anesthetized through administration of 50-100 mg/kg dose of sodium pentobarbital via the intraperitoneal route. The heart was excised and gently cradled between fingers to avoid injury followed by lifting slightly before incising the aorta, vena cava and pulmonary vessels. Immediately after excision of the heart with aorta, the heart was mounted onto the cannula in the Langendorff apparatus via the aorta. […] The pressure was measured through a pressure sensing balloon catheter inserted in the left ventricular cavity. The intrinsic inotropy (force of muscle contraction) and lusitropy (cardiac relaxation) effects of the heart were assessed by dp/dtmax and dp/dtmin.

In series [2] the test system is rats with myocardial infarction (MI)-induced heart failure. Nature of the series: Hemodynamics in rats with MI-induced heart failure (Millar PV loop). Type of series: in vivo, Lewis rats. The following applies: continuous i.v. infusion, 30 min per dose. As to the method: To assess the cardiovascular effects of modified apelin polypeptides, the polypeptides were administered to rats with myocardial infarction (MI)-induced heart failure. Cardiac function was assessed via the Millar PV loop system.
Male Lewis rats at 2-3 month of age were used for the studies. MI was induced by ligation of the left anterior descending coronary artery (LAD). Echocardiography was performed at 1 week post-MI for animal enrollment. If ejection fraction (EF) was more than 40% and no infarct was identified from echocardiography images, these animals were excluded from the study. A Millar PV loop catheter was inserted into the right common carotid artery and then advanced to the left ventricle (LV) for cardiovascular hemodynamic assessment. The arterial pressure catheter was inserted into a femoral artery for peripheral blood pressure monitoring. Experiments were performed six to seven weeks following induction of MI. The following apelin polypeptides were given intravenously via jugular vein at various doses.
Peptides were continuously infused for 30 min at each dose. At the end of the experiment, the infarct size was verified by gross morphology. FIGS. 6-8 show the results of these experiments. The infarct size (38-39% of LV) was very similar among groups. […] Contractility (dp/dt max), ejection fraction (EF), mean arterial pressure (MAP), and heart rate (HR) changes over baseline are reported at the end of the 30 min infusion period for each polypeptide.

For series [3], the system named is Rat Peritoneal Mast Cells.
Series [4] can be described thus: In vitro stability in rat plasma. It is filed as in vitro ADME. In short, it runs like this:
(§1)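 Peptide remaining was followed by high-resolution LC-MS of methanol-quenched, centrifuged samples with internal standard. Incubations were at 37° C. over 4 hr, peptides at 5 μM final in rat plasma or in rat liver or kidney homogenate.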

Series [5] can be described thus: In vitro stability in rat liver homogenate. Type of series: in vitro ADME. As to conditions: tissue homogenate. In short, it runs like this: as §1
Series [6] is described as follows: In vitro stability in rat kidney homogenate. Type of series: in vitro ADME. As to conditions: rat, tissue homogenate. In short, it runs like this: as §1
Another series can be described thus: liver homogenate. As to conditions: rat, 37° C., up to 4 hr.
The nature of another series: kidney homogenate. As to conditions: rat, 37° C., up to 4 hr.
A further series concerns Human Mast Cells. The series can be described thus: Mast cell degranulation (histamine release), human mast cells. Type of series: cell-based. As to conditions: human mast cells derived from CD34+ peripheral blood cells; 0.005 to 30 μM, 37° C., 30 min; less than 30% of total histamine content = negative. As to the method: Mast cell degranulation was measured for a number of the modified apelin polypeptides as follows in order to determine the potential immunogenic effect of the peptides. Mast cell degranulating peptide (MCDP) and compound 48/80 were used as positive controls. MCDP was obtained from Alomone Labs (Israel). Compound 48/80 was obtained from Sigma (Saint Louis, […].). Histamine Elisa kit was obtained from NEOGEN (Lexington, Ky.). Tyrode's buffer was obtained from Sigma (#T2397).
Mature human mast cells were derived from CD34+peripheral blood precursor cells after an 8-12 week differentiation/maturation process in vitro. […] Mast cell maturation was confirmed via expression of the mast cell markers c-kit and FcεRI via flow cytometry (>75% positive) and histamine release.
Mast cells (human or rat) were washed in Tyrode's buffer and seeded on 96-well plates (approx. 2000 mast cells/well). A 10 point dilution of test compounds were prepared in Tyrode's buffer and were incubated (0.005 to 30 μM) with mast cells at 37° C. for 30 min. […] A mast cell surfactant control is compared to a mast cell Tyrode's buffer control to ensure surfactants are not inducing histamine release in the absence of the lipidated molecule. Histamine release was quenched by placing the plates on ice for 5 min. Cells were centrifuged at 350×g at 4° C. for 5 min and the supernatant was collected. Released histamine was quantified by ELISA (Neogen Corporation) as per the kits' instruction. Briefly, the absorbance was measured at 650 nm in a microplate reader, following a direct competitive ELISA reaction with test samples compared against a standard curve. Total histamine content of the cells (0.1% Triton X-100) and spontaneous release were also measured to determine the percent of histamine release. Percent histamine release was calculated by the following formula: % histamine release=(ng/ml histamine release by test article−ng/ml spontaneous histamine release in Tyrode's buffer)/(ng/ml total histamine content of cells lysed in 0.1% Triton X-100−ng/ml spontaneous histamine release in Tyrode's buffer)×100.

In the next series the target is T1, rat APJ receptor (Rattus norvegicus, UniProt Q9JHG3).
T1 construct: expressed in transfected cells
T1 sequence (Q9JHG3 1-377): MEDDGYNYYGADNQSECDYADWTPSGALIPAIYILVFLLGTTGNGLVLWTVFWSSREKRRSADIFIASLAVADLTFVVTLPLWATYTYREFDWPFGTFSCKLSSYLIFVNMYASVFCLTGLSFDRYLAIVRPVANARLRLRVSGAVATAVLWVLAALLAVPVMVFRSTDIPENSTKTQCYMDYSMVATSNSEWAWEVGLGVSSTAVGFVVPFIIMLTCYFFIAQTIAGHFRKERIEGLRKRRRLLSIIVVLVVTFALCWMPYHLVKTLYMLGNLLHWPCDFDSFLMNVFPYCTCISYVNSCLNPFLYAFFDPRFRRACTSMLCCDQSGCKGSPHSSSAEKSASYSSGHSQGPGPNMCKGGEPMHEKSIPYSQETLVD
The series can be described thus: [35S] GTPγS assay, rat APJ receptor. It is filed as biochemical. The following applies: rat APJ receptor, read-out: EC50 Rat APJ Receptor. The procedure: The membranes were incubated with modified peptides in the assay buffer. […] Bound [^35S] GTPγS was separated from free radiolabel by filtration. The filter bound radioactivity was determined by liquid scintillation counting.

`CC(=O)N[C@@H](CCC(N)=O)C(=O)N[C@@H](CCCCNC(=N)N)C(=O)N1CCC[C@H]1C(=O)N[C@H](CCCNC(=N)N)C(=O)N(C)[C@@H](CC(C)C)C(=O)N[C@@H](CO)C(=O)N[C@@H](Cc1c[nH]cn1)C(=O)N[C@@H](CCCCN)C(=O)NCC(=O)N1C2CCCCC2C[C@H]1C(=O)N[C@@H](Cc1ccc(I)cc1)C(=O)N1CCC[C@H]1C(=O)N[C@H](Cc1ccc(-c2ccccc2)cc1)C(=O)O` (stereo partly drawn) [SEQ ID NO: 53, {Acetyl-NH}Q[hArg]Pr[NMeLeu]SHKG[Oic][pI-Phe]P[D-Bip]{COOH}] (Ac-Q[hArg]P[dR][NMeL]SHKG[Oic(3aξ,7aξ)][Phe(4-I)]P[dBip]-OH): the “systolic and diastolic function in isolated perfused rat hearts” value in series [1] was “dose-dependent improvement of both systolic and diastolic function”.
In the case of “109 (QRP[hArg][Cha]SHKG[Oic][Nle]P[Phe(4-Cl)]-OH; not fully specified (N-terminus)) [compound 109]”, the “hemodynamic function (dp/dt max, EF, MAP, HR) in MI rats” value (“hemodynamic function” below) in series [2] was “dose-dependent effects”.
`CC(=O)N[C@@H](CCCCNC(=N)N)C(=O)N[C@H](CCCNC(=N)N)C(=O)N[C@@H](CCC(N)=O)C(=O)N[C@@H](CCCCNC(=N)N)C(=O)N1CCC[C@H]1C(=O)N[C@H](CCCNC(=N)N)C(=O)N(C)[C@@H](CC(C)C)C(=O)N[C@@H](CO)C(=O)N[C@@H](Cc1c[nH]cn1)C(=O)N[C@@H](CCCCN)C(=O)NCC(=O)N1C2CCCCC2C[C@H]1C(=O)N[C@@H](Cc1ccc(I)cc1)C(=O)N1CCC[C@H]1C(=O)N[C@H](Cc1ccc(-c2ccccc2)cc1)C(=O)O` (stereo partly drawn) [SEQ ID NO: 16, Acetyl-[hArg][r]Q[hArg]P[r][NMeLeu]SHKG[Oic][pI-Phe]P[D-Bip]{COOH}] (Ac-[hArg][dR]Q[hArg]P[dR][NMeL]SHKG[Oic(3aξ,7aξ)][Phe(4-I)]P[dBip]-OH): in series [1], the “systolic and diastolic function in isolated perfused rat hearts” value is “dose-dependent improvement of both systolic and diastolic function”.
As for `CSCC[C@H](NC(=O)[C@@H]1CCCN1C(=O)CNC(=O)[C@H](CCCCN)NC(=O)[C@H](Cc1cnc[nH]1)NC(=O)[C@H](CO)NC(=O)[C@H](CC(C)C)NC(=O)[C@H](CCCNC(=N)N)NC(=O)[C@@H]1CCCN1C(=O)[C@H](CCCNC(=N)N)NC(=O)[C@@H]1CCC(=O)N1)C(=O)N1CCC[C@H]1C(=O)N[C@@H](Cc1ccccc1)C(=O)O` [SEQ ID NO: 6, reference compound], the “hemodynamic function” value in series [2] is “dose-dependent effects”. In addition, the “Cause Histamine Release?” value in series [3] was “No”.
For the compound `CC(=O)N[C@@H](CCCCNC(=N)N)C(=O)N[C@H](CCCNC(=N)N)C(=O)N[C@@H](CCC(N)=O)C(=O)N[C@@H](CCCCNC(=N)N)C(=O)N1CCC[C@H]1C(=O)N[C@H](CCCNC(=N)N)C(=O)N(C)[C@@H](CC(C)C)C(=O)N[C@@H](CO)C(=O)N[C@@H](Cc1c[nH]cn1)C(=O)N[C@@H](CCCCN)C(=O)NCC(=O)N1[C@H](C(=O)N[C@@H](Cc2ccc(I)cc2)C(=O)N2CCC[C@H]2C(=O)N[C@H](Cc2ccc(-c3ccccc3)cc2)C(=O)O)C[C@@H]2CCCC[C@@H]21` [compound 16] (Ac-[hArg][dR]Q[hArg]P[dR][NMeL]SHKG[Oic][Phe(4-I)]P[dBip]-OH), in series [2], the “hemodynamic function” value was “dose-dependent effects”. The share remaining at 4 h, 5 μM was determined as 86.1% in series [4], 40.7% in series [5] and 44.5% in [6].
For “{H2} [MerPr] (10K mPEG acetamide) Q R [aMePro] [hArg] [aMeLeu] S H K G P [Nle] P [4-Cl-F] {COOH}”, the not cleaved in “liver homogenate” and in “kidney homogenate” was above 90.0 % remaining at 4 hours each time.
Regarding `CCCCCCCCCCCCC(=O)N[C@@H](CCC(=O)NCCOCCOCC(=O)NCCOCCOCC(=O)N[C@@H](CCC(N)=O)C(=O)N[C@@H](CCCNC(=N)N)C(=O)N1CCC[C@H]1C(=O)N(C)[C@@H](CCCNC(=N)N)C(=O)N[C@@H](CC(C)C)C(=O)N[C@@H](CO)C(=O)N[C@@H](Cc1c[nH]cn1)C(=O)N[C@@H](CCCCN)C(=O)NCC(=O)N1CCC[C@H]1C(=O)N[C@@H](CCCC)C(=O)N1CCC[C@H]1C(=O)N[C@@H](Cc1ccc(Cl)cc1)C(=O)O)C(=O)O` [compound 287], in the series on Human Mast Cells, the “Induce Histamine Release? Human Mast Cells” value is on record as “Yes”. Also, the amount remaining at 4 h, 5 μM in [4] was 18%; in series [5], below 1%.
On the same counts, the results for `CCCC[C@H](NC(=O)[C@@H]1CCCN1C(=O)CNC(=O)[C@H](CCCCN)NC(=O)[C@H](Cc1c[nH]cn1)NC(=O)[C@H](CO)NC(=O)[C@H](CC(C)C)NC(=O)[C@H](CCCNC(=N)N)N(C)C(=O)[C@@H]1CCCN1C(=O)[C@H](CCCNC(=N)N)NC(=O)[C@H](CCC(N)=O)NC(=O)COCCOCCNC(=O)COCCOCCNC(=O)CC[C@H](NC(=O)CCC)C(=O)O)C(=O)N1CCC[C@H]1C(=O)N[C@@H](Cc1ccc(Cl)cc1)C(=O)O` [compound 491] are “No”, below 1% and below 1%.
Consider `CCCC[C@H](NC(=O)[C@@H]1CCCN1C(=O)CNC(=O)[C@H](CCCCN)NC(=O)[C@H](Cc1c[nH]cn1)NC(=O)[C@H](CO)NC(=O)[C@H](CC(C)C)NC(=O)[C@H](CCCNC(=N)N)N(C)C(=O)[C@@H]1CCCN1C(=O)[C@H](CCCNC(=N)N)NC(=O)[C@H](CCC(N)=O)NC(C)=O)C(=O)N1CCC[C@H]1C(=O)N[C@@H](Cc1ccc(Cl)cc1)C(=O)O` [compound 68], for which, at rat APJ receptor, the EC50 is 0.384 nM. In addition, the “Induce Histamine Release? Human Mast Cells” value in the series with Human Mast Cells is “No”. For the same compound, the share remaining at 4 h, 5 μM in series [4] is 59.6%; in series [5], below 1%.
For “{TDA}[AC4Abu][Aeea][Aeea]RQRP[hArg][NMeLeu]SHKG[Oic][pI-Phe]P[D-Bip]{COOH}”, the not cleaved in the series “liver homogenate” and in the series “kidney homogenate” was above 90.0 % remaining at 4 hours throughout.
